Read-outs that look alike come from different tables or passages of the source.
Experiments:
[1] = PK assay in rat (IV and PO); format: in vivo; conditions: plasma, SD rats; for bioavailability: read-out: F % (absolute bioavailability); for clearance: read-out: Cl_obs iv (clearance rate) (converted); for Vd: read-out: Vz_obs iv (apparent volume of distribution); for Tmax: read-out: Tmax po (time of maximum observed plasma concentration)
Experimental: The experimental compounds were each dissolved in a mixture of 5% DMSO+20% (30% solutol)+75% saline to prepare compound solutions. The compound solutions were intragastrically administered to SD rats at a dosage of 5.0 mg/kg. The blood was sampled at time points of 15 min, 30 min, 1 hr, 2 hrs, 4 hrs, 6 hrs, 8 hrs and 24 hrs after administration.
The experimental compounds were each dissolved in a mixture of 5% DMSO+20% (30% solutol)+75% saline to prepare compound solutions. The compound solutions were intravenously administered to SD rats at a dosage of 1 mg/kg. The blood was sampled at time points of 5 min, 15 min, 30 min, 1 hr, 2 hrs, 4 hrs, 6 hrs, 8 hrs and 24 hrs after administration.
The animals were fixed, and the tails were heated under a water bath 10 min before each sampling time. About 100 μL of blood was collected via the tail vein, and the collected blood was placed in an anticoagulant tube containing EDTA-K2. The blood samples were centrifuged at 8,000 rpm for 6 min at 4° C. to obtain plasma samples, and the plasma samples were prepared within 30 min after the blood collection. The plasma samples were stored in a refrigerator at −80° C. before test.
The sample to be tested was taken out from the −80° C. refrigerator, naturally thawed at room temperature, and vortexed for 5 min. 20 μL of plasma sample was pipetted to a 1.5 mL centrifuge tube, and 200 μL of internal standard working solution (a solution of tolbutamide in methanol, 100 ng/mL) was added. The resulting mixture was thoroughly mixed, vortexed for 5 min, and centrifuged at 12,000 rpm for 5 min. 50 μL of supernatant was precisely pipetted to a 96-well plate with 150 μL of water per well, and the resulting mixture was vortexed for 5 min and then used for LC-MS/MS analysis.

H1299 cell pAxl = target: T1, H1299 cell pAxl (Homo sapiens, UniProt P30530); assay: Inhibitory activity on cell pAxl, H1299 cells, hGAS6 stimulation, Western Blot; format: cell-based; conditions: hGAS6 200 ng/mL
T1 construct: endogenous in cells; host or cells: H1299
T1 sequence (P30530 26-894): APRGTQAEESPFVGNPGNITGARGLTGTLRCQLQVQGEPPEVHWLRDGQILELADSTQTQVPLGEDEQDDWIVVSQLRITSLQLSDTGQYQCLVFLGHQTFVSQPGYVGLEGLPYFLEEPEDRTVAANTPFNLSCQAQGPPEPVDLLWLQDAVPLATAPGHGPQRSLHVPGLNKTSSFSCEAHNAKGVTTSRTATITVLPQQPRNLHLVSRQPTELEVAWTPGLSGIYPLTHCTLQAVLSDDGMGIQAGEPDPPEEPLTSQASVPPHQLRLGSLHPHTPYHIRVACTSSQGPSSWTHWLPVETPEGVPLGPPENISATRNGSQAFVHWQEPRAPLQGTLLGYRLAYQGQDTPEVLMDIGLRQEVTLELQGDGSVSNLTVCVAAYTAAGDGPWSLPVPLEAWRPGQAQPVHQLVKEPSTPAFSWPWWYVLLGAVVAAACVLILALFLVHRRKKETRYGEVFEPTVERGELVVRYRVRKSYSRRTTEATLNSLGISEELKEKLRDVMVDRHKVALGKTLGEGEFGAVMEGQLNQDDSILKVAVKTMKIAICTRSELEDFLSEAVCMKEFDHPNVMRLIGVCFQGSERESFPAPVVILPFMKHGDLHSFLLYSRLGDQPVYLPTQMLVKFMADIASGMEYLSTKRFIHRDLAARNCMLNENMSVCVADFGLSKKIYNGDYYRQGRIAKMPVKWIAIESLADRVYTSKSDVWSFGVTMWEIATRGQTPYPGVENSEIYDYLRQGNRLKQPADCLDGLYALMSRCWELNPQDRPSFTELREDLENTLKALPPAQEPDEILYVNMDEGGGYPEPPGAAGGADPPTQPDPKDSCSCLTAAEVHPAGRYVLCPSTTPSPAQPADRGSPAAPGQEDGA
Experimental: H1299 is a non-small cell lung cancer cell.
H1299 cells were inoculated to a 6-well plate (containing 10% FBS 1640 medium, 5×10^5 cells per well) and adherently cultivated at 37° C., and 5% CO2 for 18 hrs. The cells were starved overnight, and then compound solutions with different concentrations were added. The compounds had final concentrations of 1.1, 3.3, 10 and 30 nM. […] There was a medium containing 1‰DMSO in the negative control well. The cells were incubated at 37° C., and 5% CO2 for 60 min, and then hGAS6 (R&D, final concentration: 200 ng/mL) was added to each well. The cells were further incubated for 60 min, and then the total protein of the cells was extracted for Western Blot experiment. IC50 values were calculated with GraphPad 5.0 software, and the inhibitory activities of the compounds on cell pAxl were detected.

[2] = IV 1 mg/kg, read-out: AUClast iv (area under plasma concentration-time curve, 0-24 h)
[3] = IV 1 mg/kg, read-out: tz1/2 iv (terminal half-life) (converted)
[4] = PO 5 mg/kg, read-out: AUClast po (area under plasma concentration-time curve, 0-24 h)
[5] = PO 5 mg/kg, read-out: tz1/2 po (terminal half-life) (converted)

Compound	bioavailability ([1]; IV 1 mg/kg, PO 5 mg/kg) [%]	AUC(0-t) [1, 2] [ng·h/mL]	clearance ([1]; IV 1 mg/kg) [mL/min/kg]	Vd ([1]; IV 1 mg/kg) [L/kg]	half-life [1, 3] [h]	AUC(0-t) [1, 4] [ng·h/mL]	Tmax ([1]; PO 5 mg/kg) [h]	half-life [1, 5] [h]	IC50 (H1299 cell pAxl) [nM]
COc1cc2nccc(Oc3ccc(NC(=O)c4nn(C5CCOCC5)cc(-c5ccc(C)cc5)c4=O)nc3)c2cc1OC [Compound 17, N-(5-((6,7-dimethoxyquinolin-4-yl)oxy)pyridin-2-yl)-4-oxo-1-(tetrahydro-2H-pyran-4-yl)-5-(p-tolyl)-1,4-dihydropyridazin-3-carboxamide]	70.7	4860	3.5	1.18	3.98	17200	6	3.5	
COc1cc2nccc(Oc3cnc(NC(=O)c4nn(C5CCOCC5)cc(-c5ccc(C)cc5)c4=O)nc3)c2cc1OC [Compound 18, N-(5-((6,7-dimethoxyquinolin-4-yl)oxy)pyrimidin-2-yl)-4-oxo-1-(tetrahydro-2H-pyran-4-yl)-5-(p-tolyl)-1,4-dihydropyridazin-3-carboxamide]	34.6	1500	11	0.92	0.96	2600	0.5	1.17	
COc1cc2nccc(Oc3ccc(NC(=O)c4cn(C5CCOCC5)cc(-c5ccc(F)cc5)c4=O)nc3)c2cc1OC [Compound 27, N-(5-((6,7-dimethoxyquinolin-4-yl)oxy)pyridin-2-yl)-5-(4-fluorophenyl)-4-oxo-1-(tetrahydro-2H-pyran-4-yl)-1,4-dihydropyridin-3-carboxamide]									< 1.1
COc1cc2nccc(Oc3ccc(NC(=O)c4nn(C5CCOCC5)cc(-c5ccc(C)cc5)c4=O)cc3F)c2cc1OC [Compound 28]									1.1
COc1cc2nccc(Oc3cnc(NC(=O)c4cn(C5CCOCC5)cc(-c5ccc(F)cc5)c4=O)nc3)c2cc1OC [Compound 31, N-(5-((6,7-dimethoxyquinolin-4-yl)oxy)pyrimidin-2-yl)-5-(4-fluorophenyl)-4-oxo-1-(tetrahydro-2H-pyran-4-yl)-1,4-dihydropyridin-3-carboxamide]									< 3.3

The remaining lines, values ahead:

bioavailability ([1]; IV 1 mg/kg, PO 5 mg/kg) [%]	AUC(0-t) [1, 2] [ng·h/mL]	clearance ([1]; IV 1 mg/kg) [mL/min/kg]	Vd ([1]; IV 1 mg/kg) [L/kg]	half-life [1, 3] [h]	AUC(0-t) [1, 4] [ng·h/mL]	Tmax ([1]; PO 5 mg/kg) [h]	half-life [1, 5] [h]	IC50 (H1299 cell pAxl) [nM]	Compound
31.3	4070	4	1.19	3.47	6620	4	3.14		COc1cc2nccc(Oc3ccc(NC(=O)c4nn(CC5CCOCC5)cc(-c5ccc(C)cc5)c4=O)nc3)c2cc1OC [Compound 2, N-(5-((6,7-dimethoxyquinolin-4-yl)oxy)pyridin-2-yl)-4-oxo-1-((tetrahydro-2H-pyran-4-yl)methyl)-5-(p-tolyl)-1,4-dihydropyridazin-3-carboxamide]
46.4	4220	3.33	1.65	9.08	9790	4	8.12		COc1cc2nccc(Oc3ccc(NC(=O)c4cc(-c5ccc(C)cc5)cn(CC5CCOCC5)c4=O)nc3)c2cc1OC [Compound 13, N-(5-((6,7-dimethoxyquinolin-4-yl)oxy)pyridin 2yl)-2-oxo-1-((tetrahydro-2H-pyran-4-yl)methyl)-5-(p-tolyl)-1,2-dihydropyridin-3-carboxamide]
40.5	2440	6.17	1.3	2.44	5450	1	2.56		COc1cc2nccc(Oc3ccc(NC(=O)c4cn(C5CCOCC5)cc(-c5ccc(C)cc5)c4=O)nc3)c2cc1OC [Compound 19, N-(5-((6,7-dimethoxyquinolin-4-yl)oxy)pyridin-2-yl)-4-oxo-1-(tetrahydro-2H-pyran-4-yl)-5-(p-tolyl)-1,4-dihydropyridin-3-carboxamide]
								30	Cc1ccc(-c2cn(C3CCOCC3)nc(C(=O)Nc3ccc(Oc4ccnc5cc6c(cc45)OCO6)cn3)c2=O)cc1 [Compound 29, N-(5-([1,3]dioxolo[4,5-g]quinolin-8-yloxy)pyridin-2-yl)-4-oxo-1-(tetrahydro-2H-pyran-4-yl)-5-(p-tolyl)-1,4-dihydropyridazin-3-carboxamide]
								> 10	Cc1ccc(-c2cn(C3CCOCC3)nc(C(=O)Nc3ccc(Oc4ccnc5cc6c(cc45)OCCO6)cn3)c2=O)cc1 [Compound 30, N-(5-((2,3-dihydro-[1,4]dioxino[2,3-g]quinolin-9-yl)oxy)pyridin-2-yl)-4-oxo-1-(tetrahydro-2H-pyran-4-yl)-5-(p-tolyl)-1,4-dihydropyridazin-3-carboxamide]
								< 1.1	COc1cc2nccc(Oc3ccc(NC(=O)c4cc(CC5CCOCC5)cn(-c5ccc(F)cc5)c4=O)nc3)c2cc1OC [Compound 32, N-(5-((6,7-dimethoxyquinolin-4-yl)oxy)pyridin-2-yl)-1-(4-fluorophenyl)-2-oxo-5-((tetrahydro-2H-pyran-4-yl)methy 1)-1,2-dihydropyridin-3-carboxamide]
								3.3	COc1cc2nccc(Oc3cnc(NC(=O)c4nn(C5CCOCC5)cc(-c5ccc(F)cc5)c4=O)nc3)c2cc1OC [Compound 33, N-(5-((6,7-dimethoxyquinolin-4-yl)oxy)pyrimidin-2-yl)-5-(4-fluorophenyl)-4-oxo-1-(tetrahydro-2H-pyran-4-yl)-1,4-dihydropyridazin-3-carboxamide]
65.7	8440	1.83	0.84	5.18	28000	6	4.56	< 1.1	COc1cc2nccc(Oc3ccc(NC(=O)c4nn(C5CCOCC5)cc(-c5ccc(F)cc5)c4=O)nc3)c2cc1OC [Compound 34, N-(5-((6,7-dimethoxyquinolin-4-yl)oxy)pyridin-2-yl)-5-(4-fluorophenyl)-4-oxo-1-(tetrahydro-2H-pyran-4-yl)-1,4-dihydropyridazin-3-carboxamide]

From US20210177828A1, “TAM FAMILY KINASE /AND CSF1R KINASE INHIBITOR AND USE THEREOF” (Nanjing Transthera Biosciences Co., Ltd., priority 2018, published 2021)
